In PubChem BioAssay (NCI):
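Exposure lasted 48 hours, with cells grown in 96-well plates and compounds tested at five concentrations. GI50: concentration for 50% inhibition of growth. Definition used: TGI = concentration required for complete inhibition of growth.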

Columns and labels:
Test in all cases: DTP human tumour cell line panel, 48 h
DU-145 prostate = tested on: DU-145 prostate
HOP-92 NSCLC = tested on: HOP-92 NSCLC
HS 578T breast = tested on: HS 578T breast
HT29 colon = tested on: HT29 colon
MDA-N = tested on: MDA-N
NCI/ADR-RES ovarian = tested on: NCI/ADR-RES ovarian
SF-539 CNS = tested on: SF-539 CNS
SR leukemia = tested on: SR leukemia
U251 CNS = tested on: U251 CNS
SNB-75 CNS = tested on: SNB-75 CNS

Compound | TGI (DU-145 prostate) [µM] | TGI (HOP-92 NSCLC) [µM] | TGI (HS 578T breast) [µM] | TGI (HT29 colon) [µM] | TGI (MDA-N) [µM] | TGI (NCI/ADR-RES ovarian) [µM] | TGI (SF-539 CNS) [µM] | TGI (SR leukemia) [µM] | TGI (U251 CNS) [µM] | TGI (SNB-75 CNS) [µM] | GI50 (DU-145 prostate) [µM] | GI50 (HOP-92 NSCLC) [µM] | GI50 (HS 578T breast) [µM] | GI50 (HT29 colon) [µM] | GI50 (NCI/ADR-RES ovarian) [µM] | GI50 (SF-539 CNS) [µM] | GI50 (SNB-75 CNS) [µM] | GI50 (SR leukemia) [µM] | GI50 (U251 CNS) [µM]
Nc1nc(Nc2ccc(Cl)cc2)sc1C(=O)c1cccs1 | > 100 | > 100 | 42.2 | > 100 | > 100 | > 100 | 61 | 14.9 | 38.4 | – | – | – | – | – | – | – | – | – | –
O=C(O)CC(NC(=O)/C(=C/c1ccccc1O)NC(=O)c1ccccc1)C(=O)O (centres undefined) | – | – | – | > 100 | > 100 | > 100 | > 100 | > 100 | > 100 | > 100 | – | – | – | – | – | – | – | – | –
Cc1ccc(-c2c(C#N)c(-c3ccc([N+](=O)[O-])cc3)c(C#N)c(=O)n2NS(=O)(=O)c2ccccc2)cc1 | – | 85.9 | 33.1 | > 100 | > 100 | > 100 | > 100 | – | > 100 | > 100 | – | – | – | – | – | – | – | – | –
O=C1c2cccc(NCCNCCO)c2C(=O)c2cccc(NCCNCCO)c21 | 5.91 | 2.9 | – | 3.54 | 1.55 | 30.9 | 2.74 | – | 10.9 | 3.03 | – | – | – | – | – | – | – | – | –
O=C(Nc1ccc(-n2cc(-c3ccncc3)c(-c3ccc(O)c(Cl)c3)n2)cc1)Nc1cccc(Cl)c1Cl | > 32.5 | 9.84 | 26.5 | 10.4 | – | > 32.5 | 9.27 | > 32.5 | 25 | > 32.5 | 12.8 | 1.16 | 2.84 | 3.87 | > 32.5 | 2.04 | 5.51 | 30.6 | 2.54
OCC(O)C(O)C(O)/C=N/Nc1nc(O)c(/C=C2\C=Nc3ccccc32)[nH]1 (centres undefined) | > 100 | > 100 | > 100 | > 100 | > 100 | > 100 | > 100 | – | > 100 | > 100 | – | – | – | – | – | – | – | – | –
C[C@]12CC[C@H](O)C=C1CC[C@@H]1[C@@H]2CC[C@]2(C)C(c3ccc(=O)oc3)CC[C@]12O (some centres undefined) | – | 0.0448 | – | 0.293 | – | 0.0926 | 0.0152 | – | 0.102 | 0.0736 | – | – | – | – | – | – | – | – | –
COC(=O)C1OC(O[C@H]2CC[C@]3(C)[C@H]4CC=C5[C@@H]6CC(C)(C)CC[C@]6(C(=O)OC6OCC(O)C(O)C6OC6OC(C)C(OC7OCC(OC8OCC(O)C(O)C8O)C(O)C7O)C(O)C6O)[C@H](O)C[C@@]5(C)[C@]4(C)CC[C@H]3C2(C)C)C(O)C(O)C1O (some centres undefined) | 16.9 | 4.77 | 13 | 8.9 | 3.44 | 21.1 | > 100 | – | 18.2 | 11.3 | – | – | – | – | – | – | – | – | –
c1csc(-c2c3ccc(=[N+]4CCCCC4)cc-3oc3cc(N4CCCCC4)ccc23)c1 | 0.201 | 0.309 | 0.565 | – | – | – | 0.195 | – | – | 0.508 | 0.0578 | 0.127 | 0.0563 | – | – | 0.0446 | 0.123 | – | –
Cc1c(C#N)c(N)n(C2OCC(O)C(O)C2O)c(=S)c1C#N (centres undefined) | > 100 | – | > 100 | > 100 | > 100 | > 100 | > 100 | > 100 | – | > 100 | – | – | – | – | – | – | – | – | –
CCN1C(=O)N(CC)C2Nn3c(s/c(=C4\C(=O)N(C)c5ccccc54)c3=O)=NC21 (centres undefined) | – | > 100 | – | > 100 | – | > 100 | – | > 100 | > 100 | – | – | 69.5 | – | 2.33 | 1.95 | – | – | 0.978 | 4.21
O=C(c1ccccc1)N1C(=S)N=C(Nc2ccccc2)C1=Nc1ccccc1 | > 100 | – | > 100 | > 100 | > 100 | > 100 | > 100 | > 100 | > 100 | > 100 | – | – | – | – | – | – | – | – | –
CN1COCc2cc3cc4c(cc3nc21)OCCO4 | – | > 100 | – | > 100 | > 100 | > 100 | > 100 | – | > 100 | > 100 | – | – | – | – | – | – | – | – | –
CC1=CC(=O)CC2(C)CCC(C(C)CC(=O)CC(C)C)CC12 (centres undefined) | > 100 | > 100 | > 100 | 76.8 | – | > 100 | 30 | 41.6 | > 100 | > 100 | – | – | – | – | – | – | – | – | –
CC(C)(C)c1ccc(OCC(=O)O)c(Cl)c1 | > 100 | > 100 | > 100 | > 100 | > 100 | > 100 | > 100 | – | > 100 | > 100 | – | – | – | – | – | – | – | – | –
CC(C)(C)OC(=O)C1C(=O)NC(=O)CC1C(COCc1ccccc1)OCc1ccccc1 (centres undefined) | > 100 | 30.5 | 49.5 | 37.1 | 36.2 | – | 40.6 | 64.1 | 40.2 | – | – | – | – | – | – | – | – | – | –
S=C1CC(c2ccccc2)Sc2ccc(Cl)cc2N1 (centres undefined) | > 100 | – | 48.3 | > 100 | > 100 | > 100 | – | > 100 | > 100 | > 100 | – | – | – | – | – | – | – | – | –
COC(=O)[C@H](C)NC(=O)[C@H](CSC)N1C(=O)N[C@@H](C(C)C)C1=O | > 100 | > 100 | – | > 100 | > 100 | > 100 | > 100 | > 100 | > 100 | > 100 | – | – | – | – | – | – | – | – | –
C[C@]1(S(=O)(=O)c2ccccc2)C[C@H]2N(Cc3ccccc3)[C@@H]1CCC21OCCO1 | > 100 | > 100 | > 100 | > 100 | > 100 | > 100 | – | – | > 100 | > 100 | – | – | – | – | – | – | – | – | –
O=[N+]([O-])c1ccc(C2=Nc3ccccc3SC(c3ccccc3)C2)cc1 (centres undefined) | – | – | – | – | – | – | 40.3 | 45.2 | 26.3 | 37.1 | – | – | – | – | – | – | – | – | –
Cc1c2ccncc2c(C)c2c1[nH]c1ccccc12 | 2.13 | 2.59 | 5.45 | 3.88 | – | 2.93 | 2.11 | > 100 | 2.08 | 2.64 | 0.695 | – | 1.37 | – | – | – | – | 0.819 | –
COc1cc2c(c(O)c1O)-c1ccc(OC)c(=O)cc1C(NC(C)=O)CC2 (centres undefined) | – | 31.1 | – | > 70.3 | – | – | 24 | 74.3 | 25.8 | 16.6 | – | – | – | – | – | – | – | – | –
CCOC(=O)C1CN(C2CC2)CCC1=O (centres undefined) | > 100 | – | > 100 | > 100 | > 100 | > 100 | – | > 100 | > 100 | > 100 | – | – | – | – | – | – | – | – | –
